The test system of the assay is mouse melanoma B16F10 cell line expressing TRP2, TRP1, and gp100. Kind of assay: Mouse tumor growth test, mouse melanoma B16F10. The assay is classed as in vivo, C57BL/6 mouse. How it is done: A mouse fibrosarcoma CMS5a cell line expressing mERK2, a mouse colorectal cancer cell CT26 cell line expressing AH1 and gp70, or a mouse melanoma B16F10 cell line expressing TRP2, TRP1, and gp100 was subcutaneously transplanted. The CMS5a cell line and the CT26 cell line were each subcutaneously transplanted in an amount of 1×10^6 cultured cells/100 μL/individual to each BALB/c mouse (female: body weight: 15 to 25 g). The B16F10 cell line was subcutaneously transplanted in an amount of […] cultured cells/100 μL/individual to each C57BL/6 mouse (female; body weight: 15 to 25 g). Then, tumor volumes were measured over time.
Each sample of Table 17 was subcutaneously administered with the frequency described in Table 17 to the mouse melanoma B16F10-bearing mice prepared by the method described in Example 5 to conduct a mouse tumor growth test.
Each sample of Table 20 was subcutaneously administered with the frequency described in Table 20 to the mouse melanoma B16F10-bearing mice prepared by the method described in Example 5 to conduct a mouse tumor growth test.
Each sample of Table 21 was subcutaneously administered with the frequency described in Table 21 to the mouse melanoma B16F10-bearing mice prepared by the method described in Example 5 to conduct a mouse tumor growth test.
Each sample of Table 22 was subcutaneously administered with the frequency described in Table 22 to the mouse melanoma B16F10-bearing mice prepared by the method described in Example 5 to conduct a mouse tumor growth test.
Each sample of Table 23 was subcutaneously administered with the frequency described in Table 23 to the mouse melanoma B16F10-bearing mice prepared by the method described in Example 5 to conduct a mouse tumor growth test.

The mark [1] stands for this setting: Example 7-4, FIG. 23, adjuvant (Sting 0.015 mg, R848 0.05 mg) with 99k HA-C6-Chol-42% / TRP2TRP1gp100-6Y 0.05 mg s.c. day 10, 14, 17, 20.

In the case of `CCOCc1nc2c(N)nc3ccccc3c2n1CC(C)(C)O` [R848], under setting [1], the “tumor growth suppressive effect (tumor volume)” value is reported as “high tumor growth suppressive effect”. On the same count and under the same terms, with `Nc1nc2c(ncn2C2OC3COP(=O)(S)OC4C(COP(=O)(S)OC2C3O)OC(n2cnc3c(N)ncnc32)C4O)c(=O)[nH]1` (stereo not drawn) [Sting, 2′3′-cGAM(PS)2(Rp/Sp)] the entry was “high tumor growth suppressive effect”.

Take polyIC: for the setting “Example 7-3, FIG. 22, adjuvant 0.05 mg with 99k HA-C6-Chol-42% / TRP2TRP1gp100-6Y 0.05 mg s.c. day 10, 14, 17, 21”, the “tumor growth suppressive effect (tumor volume)” value was “high tumor growth suppressive effect”.
